{"source": "patent US20140155445A1", "about": "“Compounds and Methods for Treating Cancer and Diseases of the Central Nervous System” (Osta Biotechnologies Inc., priority 2007, published 2014)", "key": {"[1]": {"experiment": "Pharmacokinetic evaluation of QC-56 in mouse brain", "format": "in vivo", "settings": "brain tissue, i.v. tail vein injection", "description": "Regular male CD1 mice, 6 weeks old, were obtained from Charles River Laboratories, St. Zotique, PQ, Canada. The mice weighed 22-28 g. The experiments were approved by the Animal Care Committee, McGill University, Montreal, Quebec. The animals were housed in individual cages and were fed standard rodent chow and water ad libitum. […] In this case, mice were anesthetized using isoflurane-based system (DISPOMED, MODUFLEX COMPACT NRB, 3975-0800-000). […] Serum was collected after the samples were centrifuged 2200×, 4° C. for 20 minutes and stored at −80° C. until analysis. For the brain tissue collection, skin of mice was removed and brain was carefully dissected out from the skull, transferred into a Petri dish, briefly washed with ice-cold phosphate-buffered saline (PBS), and immediately stored at −80° C. until further analysis.\nThe assay of QC-56 in mouse brain samples was carried out using a qualified LC/MS/MS assay method."}, "[2]": {"tested_on": "SKMEL-V+ tumors (blood vessels, CD31 positive cells)", "experiment": "CD31 / H&E staining, microvessel density of SKMEL-V+ tumors", "format": "in vivo, mouse", "settings": "SKMEL-V+ tumors from treated mice; hydrochloride", "description": "SKMEL-V (human melanoma cells). SKMEL-V cells were derived from SKMEL-24 cells (ATCC) by overexpression of mouse VEGF. […] Tumors were either snap frozen in liquid nitrogen or fixed in 10% buffered formalin and embedded in paraffin. […] BD PharMingen, San Diego, Calif.). […] Sections were rehydrated in PBS and then blocked with 5% normal goat serum for 1 h. The sections were then incubated overnight at 4° C. with CD31 antibody diluted 1:25 in 3% BSA-PBS. […] Paraffin-embedded material was used for Harris' hematoxylin. Microvessel density was quantified using a method described by Weidner et al ([…], and Folkman […]. Med, 1991; 324:1-8). Briefly, randomly vascularized areas were selected (hot spots) under 40× field and 100× fields. Then a 400× field was used to count microvessels in each of these areas. Single endothelial cells or clusters of endothelial cells with or without lumen were considered to be individual vessels. […] All slides were examined blindly with no prior knowledge of the treatment status."}, "[3]": {"biological_target": "T1, human HO-1 (hHO-1) in transfected astroglia (Homo sapiens, UniProt P09601)", "T1 construct": "containing the entire protein-coding region (866 bp) of the human HO-1 gene; expressed in transfected cells; host or cells: primary rat astrocytes, transient transfection with pcDNA3.1/Zeo.CMV.Flag.hHO-1 (Lipofectamine 2000)", "T1 sequence (P09601 1-288)": "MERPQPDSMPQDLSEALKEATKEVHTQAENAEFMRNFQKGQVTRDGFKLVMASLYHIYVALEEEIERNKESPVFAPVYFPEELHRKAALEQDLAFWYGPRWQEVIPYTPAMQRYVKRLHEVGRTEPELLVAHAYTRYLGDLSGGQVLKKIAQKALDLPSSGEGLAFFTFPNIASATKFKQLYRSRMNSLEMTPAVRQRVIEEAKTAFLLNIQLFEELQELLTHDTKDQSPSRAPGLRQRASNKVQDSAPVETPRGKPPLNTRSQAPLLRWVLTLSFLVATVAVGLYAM", "experiment": "HO enzyme activity (bilirubin formation) in hHO-1-transfected astrocytes", "format": "cell-based", "settings": "6.5 μM", "description": "Upon reaching >90% confluence, 1×10^6 cells were transiently transfected with 4.0 μg of plasmid DNA-Lipofectamine 2000 complex using Lipofectamine 2000 method according to manufacturer instructions (Invitrogen). […] 12 μg of plasmid DNA and 16 μl of Lipofectamine 2000 reagent were diluted in 1.5 mL opti-MEM I reduced serum medium and incubated for 5 minutes at room temperature with gentle mixing. The two solutions were combined, incubated at room temperature for 20 minutes to promote formation of DNA-lipid complexes and administered to the cells. 2 mL opti-MEM I reduced serum medium was added to the flasks to ensure coverage of the monolayer by the transfection mixture. Following incubation for 6 hours at 37° C., the transfection mixture was replaced with 10 mL of complete media without antibiotics.\nA young adult male rat was gas-anesthetized, laid on ice and systemically perfused with ice-cold 0.9% NaCl to get rid of all blood from liver. The liver was then excised on ice and transferred to a cold room (4° C.) and cut into small pieces in cold 0.9% NaCl (3 mL per gram of tissue) with surgical scissors in and placed in a 50 mL tube. The tissue chunks were homogenized with an electric tissue homogenizer and centrifuged at 150×g for […] at 4° C. Similarly, all of the following steps, including centrifugations, were performed at 4° C. The supernatant was centrifuged at 18,000×g for 10 min and further at 30,000×g for 30 min. A saturated solution of ammonium sulfate was added to the 30,000×g supernatant to attain 40% saturation and placed on ice for 10 min. The mixture was centrifuged at 10,000×g for 10 min and supernatant was recovered and transferred to a fresh tube. Sixty percent of saturation was achieved by adding saturation solution of ammonium sulfate to the supernatant. The mixed solution was centrifuged again at 10,000×g for 10 min and […]. […] The dialysate was centrifuged at 10,000 g for 10 min and pellet was discarded. The protein concentration of the supernatant was measured with Bradford reagent (BioRad laboratories, Hercules, Calif.) and adjusted to 10 mg/mL with 0.01 M KPO4, pH7.4. The supernatant was aliquoted and stored at −20° C. ready for use.\nCytosol extracts were prepared for HO activity measurement by the method of Ryter (Ryter, Kvam, Tyrrell 2000). Astroglial monolayers were washed with ice-cold PBS and scraped in ice-cold PBS-EDTA (1 mM, pH 8.0) containing 50 μg/mL protease inhibitor (AEBSF), centrifuged at 150×g at 4° C. and resuspended in 20 mM Tris-HCl (pH 7.4) and 0.25 M sucrose containing protease inhibitors. Cell suspensions were sonicated on ice 2×15 s at 20 W and centrifuged for 20 min at 4° C. at 15,000×g. Protein concentration of supernatant was measured with Bradford method. […] Reaction mixtures were incubated at 37° C. in the dark for 60 min with hard vortex every 10 min. […] HO activity was calculated as nanomoles bilirubin per milligram protein per min, assuming an extinction coefficient of 40/mM/cm in chloroform (see FIG. 8).\nCells were rinsed twice with cold PBS (pH 7.4) and scraped in iced lysis buffer consisting of 1% Nonidet P-40, 50 mM Tris.HCl (pH 7.4), 30 mM NaCl, 25 mM β-glycerophosphate, 10 mM EDTA, 10 mM EGTA, 1 mM MgCl2, and protease inhibitors (10 mM sodium fluoride, 50 μg/mL AEBBSF, 5 μg/mL leupeptin, 5 μg/mL pepstatin, 5 μg/mL aprotinin). […] Protein contents were determined using the Bradford method. […]"}}, "note": "“Also recorded” adds a separate entry of the source."}
{"compound": "Brc1ccc(CCC2(Cn3ccnc3)OCCO2)cc1.Cl", "note": "[QC-56, 1-((2-(2-(4-Bromophenyl)ethyl)-1,3-dioxolan-2-yl)methyl)-1H-imidazole hydrochloride]", "values": [{"measurement": "time of maximal brain concentration", "setting": "[1]", "result": 1, "unit": "min"}, {"measurement": "AUC0→3 hrs", "setting": "[1]; male CD-1 mice", "result": 60.3, "unit": "µg·h/g"}, {"measurement": "AUC0→inf", "setting": "[1]; male CD-1 mice", "result": 158, "unit": "µg·h/g"}, {"measurement": "T1/2z", "setting": "[1]; male CD-1 mice", "result": 4.30, "unit": "h"}, {"measurement": "concentration at 180 min", "setting": "[1]; male, CD-1, mouse, iv, read-out: brain concentration at 180 min post-dose", "result": "15800 ± 800", "unit": "ng/g"}, {"measurement": "Cmax", "setting": "[1]; mouse, iv, male CD-1 mice", "result": "50200 ± 3200", "unit": "ng/g"}, {"measurement": "tumor vascularization (vessel count, size, CD31)", "setting": "[2]", "result": "significant reduction in the density of blood vessels; also recorded: significant reduction in vascularization; also recorded: significant decrease in the size and number of blood vessels"}, {"measurement": "HO activity in HO-1-transfected astroglia", "setting": "[3]; 18 h, hHO-1-transfected cells, hydrochloride", "result": "suppressed to levels akin to those of non-transfected and sham-transfected controls; also recorded: significantly attenuated; also recorded: significantly decreased"}, {"measurement": "expression level of flag-tagged HO-1 protein", "setting": "[3]; transiently transfected cells", "result": "without affecting the expression level of flag-tagged HO-1 protein"}]}
